Experimental data published in article PMC3684770 (Free Radical Biology & Medicine, 2013).
Like-named read-outs stand apart in the source and are kept apart here.

Key:
[1] = tested on: 1321N1 astrocyte cell line; experiment: 1321N1 oxidative stress assay (serum withdrawal, DCF); details: for 1321N1 oxidative stress assay Toxic dose: minimum dose at which toxicity was observed; for Emax: 1321-N1, 24 h, read-out: 1321N1 oxidative stress assay Max reduction
Procedure: (§1) Media were then replaced with serum-free, phenol-free media for 5 h.

Nrf2-ARE pathway = experiment: ARE reporter assay in CHO 4xARE-TK-GFP cells (Spectrum library hits); details: for Toxic dose: lowest dose at which a reduction in GFP fluorescence was observed; for maximal fold induction: CHO, read-out: Fold GFP induction; for Cmax: read-out: Cmax (concentration inducing a maximal response), CHO-4xARE-TK, 24 hours, serum free medium
Procedure: The Z′ score was calculated as follows Z′=1−(3SD^++3SD^−)/(Ave^+–Ave^−) where SD^+ = standard deviation of positive control wells; SD^− = standard deviation of negative control wells; Ave^+ = average fluorescence reading of positive control wells; Ave^− = average fluorescence reading of negative control wells.
Media was removed by hand and replaced (1 compound/well) with the Spectrum library diluted to 10 μM in 0.1% DMSO using a Q-bot liquid handling system (Genetix, New Milton, UK). […] The TK-GFP CHO ARE cell line was screened twice in a single point assay and the control TK-GFP CHO cell line was screened once to eliminate false positives.
The compounds were applied in triplicate to confluent cells in 96 well plates in serum free medium for 24 hours and the induction of GFP measured in a fluorescence plate reader.
In order to screen the Spectrum collection of 2000 molecules the reporter assay was optimised in […]. To assess the suitability of the assay for library screening, a Z’ score calculation was performed by treating alternate wells with vehicle (0.1% DMSO) and 10 µM Ebselen as a positive control (see calculation in Methods). […] The library was subsequently screened at a single point concentration of 10µM for every compound. Drug library dilutions and plating were performed with a Q-BOT liquid handling system and both the 4xARE-TK-GFP reporter cell line and TK-GFP control cell line were tested for their response to the compounds. Hits were identified as having data points more than three standard deviations above the background level, which was the average value of 24 wells treated with vehicle (0.1% DMSO) only. Hit compounds were checked to see if they generated a response in the control cell line, for example by non-specific activation of transcription or autofluorescence. […] The library screen was repeated once in the 4xARE –TK-CHO cell line and compounds classed as hits in both screens were taken forward for further assessment.

NSC34 cells = experiment: NSC34 oxidative stress assay (serum withdrawal, DCF); details: for NSC34 oxidative stress assay Toxic dose: minimum dose at which toxicity was observed; for Emax: NSC-34, 24 h, read-out: NSC34 oxidative stress assay Max reduction
Procedure: as §1

C6 astrocyte cell line = experiment: C6 oxidative stress assay (serum withdrawal, DCF); details: for IC50: read-out: C6 oxidative stress assay IC50; for C6 oxidative stress assay Toxic dose: minimum dose at which toxicity was observed; for Emax: 24 h, read-out: C6 oxidative stress assay Max reduction
Procedure: as §1

[2] = maximum % inhibition of DCF signal
[3] = CHO ARE reporter, 7-point concentration response
[4] = average fold over baseline at the maximal response, CHO cells, 24 h
[5] = maximum % inhibition of DCF signal, negative = prooxidant
[6] = Homo sapiens, 1321-N1, read-out: 1321N1 oxidative stress assay IC50

Row | Molecule | 1321N1 oxidative stress assay Toxic dose [1] | Toxic dose (Nrf2-ARE pathway) | NSC34 oxidative stress assay Toxic dose (NSC34 cells) | C6 oxidative stress assay Toxic dose (C6 astrocyte cell line) | Emax ([1]; Homo sapiens) [%] | EC50 (Nrf2-ARE pathway; Cricetulus griseus) [µM] | Emax (NSC34 cells; Mus musculus) [%] | Emax (C6 astrocyte cell line; Rattus norvegicus, Astrocyte) [%] | IC50 (C6 astrocyte cell line; Rattus norvegicus, Astrocyte) [µM] | IC50 [1, 6] [µM] | also measured
1 | 3-α-Hydroxygedinin |  |  |  |  |  |  |  |  |  |  | 1321N1 oxidative stress assay Max reduction [1]: 25%; Fold GFP induction (Nrf2-ARE pathway): 3.01 fold; NSC34 oxidative stress assay Max reduction (NSC34 cells): 14%; C6 oxidative stress assay Max reduction (C6 astrocyte cell line): 42%; IC50 (C6 astrocyte cell line): 3.22 µM
2 | 3β Hydroxydeoxydesacetoxy-7-oxogedunin | None | 30 µM | 3 µM | None |  |  |  |  |  |  | 1321N1 oxidative stress assay Max reduction [1, 2]: 62%; IC50 ([1]; read-out: 1321N1 oxidative stress assay IC50, 24-h preconditioning, 6-h serum withdrawal, DCF fluorescence): 3.96 µM; EC50 (Nrf2-ARE pathway; [3]): 8.71 µM; Fold GFP induction (Nrf2-ARE pathway; [4]): 2.55 fold; NSC34 oxidative stress assay Max reduction (NSC34 cells; [5]): 0%; C6 oxidative stress assay Max reduction (C6 astrocyte cell line; [2]): 67%; IC50 (C6 astrocyte cell line; 24-h preconditioning, 6-h serum withdrawal, DCF fluorescence): 3.07 µM
3 | COc1cc(O)c(C)c(O)c1 [2,6-Dihydroxy-4-methoxytoluene] | None | 100 µM | None | 10 µM | 40 | 45 | 28 | 16 | 5.29 |  | IC50 (NSC34 cells; Mus musculus, NSC-34, read-out: NSC34 oxidative stress assay IC50): ~3.26 µM
4 | Cc1[nH]c2ccccc2c1CN(C)C [2-Methyl gramine] | none | 100 µM | 3 µM | none | 36 | 3 | -30 | 36 | 32 | 11 | maximal fold induction (Nrf2-ARE pathway; Cricetulus griseus, 24 h): 2.27
5 | CC(=O)OC1CC[C@@]2(C)C(CC[C@H]3[C@@H]4CC=C(C(C)=O)[C@@]4(C)C(=O)C[C@@H]32)C1 (stereo partly drawn) [3 Acetoxypregn-16-en-12,20-dione] | None | 30 µM | None | None | 75 | 2.98 | 0 | 50 | 5.34 | 12.4 | 
6 | COc1cccc(O)c1O [3-Methoxycatechol] | none | 100 µM | 0.3 µM | 10 µM | 39 | 15.4 | -13 | 46 | 1.2 |  | 
7 | Cc1cc(O)c(C)c(O)c1C(=O)O [3-Methylorsellinic acid] | none | 100 µM | 0.3 µM | none | 53 | 9.59 | -12 | 56 | 3.1 | 3.26 | 
8 | CC(=O)Oc1ccc(O)cc1 [4-Acetoxyphenol] | none | 100 µM | none | none | 42 | 2.91 | -70 | 0 |  | 0.298 | 
9 | COc1ccc(/C=C/C(=O)c2ccccc2)cc1 [4-Methoxychalcone] | None | 100 µM | None | None | 30 | 15 | 24 | 82 | 3.55 | 3.6 | Fold GFP induction (Nrf2-ARE pathway; [4]): 2.13 fold
10 | C=CC(C1=CC(=O)C(OC)=CC1=O)c1ccccc1 (stereo not drawn) [4-Methoxydalbergione] | none | 100 µM | none | none | 43 |  | -44 | 14 | 2.5 |  | maximal fold induction (Nrf2-ARE pathway; Cricetulus griseus, 24 h): 2.11
11 | CCc1cccc(CC)c1N(COC)C(=O)CCl [Alachlor] | none |  |  |  | 83 | 3.29 | 0 | 62 | 6.22 | 1.97 | 
12 | COc1cc(O)cc(OC)c1OC [Antiarol] | none | 100 µM | 10 µM | 10 µM | 35 |  | -50 | 23 | 3.05 |  | 
13 | S=C=NCc1ccccc1 [Benzyl isothiocyanate] | none | None | none | none | 8 | 24 | -28 | 27 | 3.47 |  | 
14 | ClC1=C(Cl)C2(Cl)C3C(Cl)C(Cl)CC3C1(Cl)C2(Cl)Cl (stereo not drawn) [Chlordane] | none | 100 µM | 3 µM | none | 68 | 9.18 | 0 | 20 | 3.57 |  | Fold GFP induction (Nrf2-ARE pathway; [4]): 1.56 fold
15 | CC(=O)O[C@@H]1CC2C(C)(C)C=CC(=O)[C@]2(C)C2CC[C@@]3(C)[C@H](c4ccoc4)OC(=O)C4OC43[C@@]21C (stereo partly drawn) [Isogedunin] | None | None | 1 µM |  |  |  |  |  |  |  | 1321N1 oxidative stress assay Max reduction [1, 2]: 10%; EC50 (Nrf2-ARE pathway; [3]): > 100 µM; Fold GFP induction (Nrf2-ARE pathway; [4]): 3.11 fold; NSC34 oxidative stress assay Max reduction (NSC34 cells; [5]): 0%
16 | CC(C)(C)c1cc(O)ccc1O [tBHQ, tert-butyl hydroquinone, reference compound] |  |  |  |  |  |  |  |  |  |  | Cmax (Nrf2-ARE pathway): 10 µM
17 | epigallocatechin-3-gallate [EGCG, reference compound] |  |  |  |  |  |  |  |  |  |  | Cmax (Nrf2-ARE pathway): 100 µM
